molecular target: T1, c-kit mutant D816V (Homo sapiens, UniProt P10721, D816V/DEL694-753); assay: c-Kit mutant D816V biochemical assay, AlphaScreen; conditions: c-kit D816V biochemical inhibitory activity; read-out: Biochemical activity (IC50 μM) Kit D816V
T1 construct: residues 551-934, kinase insertion domain residues 694-753 deleted; 6x-histidine (N); made in house; host or cells: E. coli Arctic Express (DE3) RIL (Stratagene)
Procedure: Compounds to be tested were dissolved in DMSO to a concentration of 20 mM. These were diluted 30 μl into 120 μl of DMSO (4 mM) and 1 μl was added to an assay plate. These were then serially diluted 1:3 (50 μl to 100 μl DMSO) for a total of 8 points. Plates were prepared such that each kinase reaction is 20 μl in 1× kinase buffer (25 mM HEPES, pH 7.2, 8 mM MgCl2, 2 mM MnCl2, 50 mM NaCl, 0.01% Brij, 1 mM DTT, 0.01% BSA), 5% DMSO and 10 μM ATP. […] After incubation of the kinase reaction for 30 minutes at room temperature, 5 μl of donor beads (Streptavidin coated beads (Perkin Elmer Life Science) final concentration 7.5 μg/ml) in stop buffer (25 mM Hepes pH 7.5, 100 mM EDTA, 0.01% BSA) was added, the sample was mixed and incubated for 20 minutes at room temperature before adding 5 μl of acceptor beads (PY20 coated beads (Perkin Elmer Life Science) final concentration 7.5 μg/ml) in stop buffer. The samples were incubated for 60 minutes at room temperature and the signal per well was read on EnVision reader. […] The signal vs. compound concentration was used to determine the IC50.
Cells were grown in Terrific Broth (TB) media to an OD600 of 0.6 at 37° C. at which temperature was reduced to 10° C., protein was induced with 1.0 mM IPTG for 18 hours and harvested by centrifugation at 8000×g for 20 minutes. Cells were re-suspended in 0.1M KPO4 pH 8.0, 250 mM NaCl, 10% Glycerol, 0.75% NP-40, 25 mM Imidazole, 5 mM BME with 0.2 mg/ml Lysosyme, 2.0 mM PMSF, 25 μg/ml DNAse I, incubated in ice for 30 minutes and lysed with a cell disruptor (MicroFluidics). The lysate was clarified by centrifugation at 20,000×g for 2 hours. The protein was captured with Talon resin (Clontech). Contaminating proteins were washed off with 25 mM Tris-HCl pH 8.3, 250 mM NaCl, 15% Glycerol, 1% Triton X-100, and protein eluted using 100 mM EDTA. The protein was further purified using Gel Filtration column 26/600 Superdex 200 (GE) in 50 mM Tris-HCl, pH 8.0, 250 mM NaCl, 15% Glycerol, 5 mM BME. The protein was aliquoted and flash-frozen in liquid Nitrogen.

T1 sequence (P10721 with tags, fused parts or gaps DEL694-753/D816V): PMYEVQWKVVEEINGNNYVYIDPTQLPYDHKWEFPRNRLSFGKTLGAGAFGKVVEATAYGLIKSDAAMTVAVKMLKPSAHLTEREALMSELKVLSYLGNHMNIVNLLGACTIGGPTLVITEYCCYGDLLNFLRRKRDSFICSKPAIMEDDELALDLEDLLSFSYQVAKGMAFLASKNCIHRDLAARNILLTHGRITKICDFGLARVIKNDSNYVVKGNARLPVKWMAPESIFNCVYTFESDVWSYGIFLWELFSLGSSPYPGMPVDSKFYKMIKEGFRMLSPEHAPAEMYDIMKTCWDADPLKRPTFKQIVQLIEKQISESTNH

Row | Structure (SMILES) | IC50 [µM]
1 | NS(=O)(=O)c1ccc(-c2ncnc3[nH]c(-c4ccc(F)cc4)cc23)c(F)c1 [P-0376, 3-fluoro-4-[6-(4-fluorophenyl)-7H-pyrrolo[2,3-d]pyrimidin-4-yl]benzenesulfonamide] | 0.0001 to 1
2 | Cc1cc2c(-c3ccc(S(=O)(=O)NC4CC4)cc3)ncnc2[nH]1 [P-0380, N-cyclopropyl-4-(6-methyl-7H-pyrrolo[2,3-d]pyrimidin-4-yl)benzenesulfonamide] | 10 to 200
3 | O=S(=O)(Nc1cccc(-c2ncnc3[nH]c(-c4cnc(C5CC5)nc4)cc23)c1)C1CC1 [P-0383, N-[3-[6-(2-cyclopropylpyrimidin-5-yl)-7H-pyrrolo[2,3-d]pyrimidin-4-yl]phenyl]cyclopropanesulfonamide] | 10 to 200
4 | c1nc(-c2cnc(C3CC3)nc2)c2cc(-c3cnc(C4CC4)nc3)[nH]c2n1 [P-0384, 4,6-bis(2-cyclopropylpyrimidin-5-yl)-7H-pyrrolo[2,3-d]pyrimidine] | 10 to 200
5 | NS(=O)(=O)c1ccc(-c2ncnc3[nH]c(-c4cnc(C5CC5)nc4)cc23)cc1 [P-0385, 4-[6-(2-cyclopropylpyrimidin-5-yl)-7H-pyrrolo[2,3-d]pyrimidin-4-yl]benzenesulfonamide] | 1 to 10
6 | O=S(=O)(Nc1ccc(-c2ncnc3[nH]c(-c4ccc(F)cc4)cc23)c(F)c1)N1CCCC1 [P-0400, N-[3-fluoro-4-[6-(4-fluorophenyl)-7H-pyrrolo[2,3-d]pyrimidin-4-yl]phenyl]pyrrolidine-1-sulfonamide] | 1 to 10
7 | O=S(=O)(Nc1ccc(-c2ncnc3[nH]c(-c4ccc(F)cc4)cc23)cc1F)N1CCCC1 [P-0405, N-[2-fluoro-4-[6-(4-fluorophenyl)-7H-pyrrolo[2,3-d]pyrimidin-4-yl]phenyl]pyrrolidine-1-sulfonamide] | 10 to 200
8 | O=S(=O)(Nc1ccc(-c2ncnc3[nH]c(-c4ccc(F)cc4)cc23)cc1)N1CCCC1 [P-0411, N-[4-[6-(4-fluorophenyl)-7H-pyrrolo[2,3-d]pyrimidin-4-yl]phenyl]pyrrolidine-1-sulfonamide] | 1 to 10
9 | CCNc1ccc(-c2ncnc3[nH]c(-c4ccc(F)cc4)cc23)cn1 [P-0417, N-ethyl-5-[6-(4-fluorophenyl)-7H-pyrrolo[2,3-d]pyrimidin-4-yl]pyridin-2-amine] | 1 to 10
10 | CCNS(=O)(=O)c1ccc(-c2ncnc3[nH]c(-c4ccc(F)cc4)cc23)cc1 [P-0422, N-ethyl-4-[6-(4-fluorophenyl)-7H-pyrrolo[2,3-d]pyrimidin-4-yl]benzenesulfonamide] | 10 to 200
11 | O=S(=O)(Nc1ccc(F)cc1)c1ccc(-c2ncnc3[nH]c(-c4ccc(F)cc4)cc23)cc1 [P-0428, N-(4-fluorophenyl)-4-[6-(4-fluorophenyl)-7H-pyrrolo[2,3-d]pyrimidin-4-yl]benzenesulfonamide] | 0.0001 to 1
12 | Cc1ccc(S(=O)(=O)Nc2cccc(-c3ncnc4[nH]c(-c5ccc(F)cc5)cc34)c2)cc1 [P-0435, N-[3-[6-(4-fluorophenyl)-7H-pyrrolo[2,3-d]pyrimidin-4-yl]phenyl]-4-methyl-benzenesulfonamide] | 10 to 200
13 | Cc1csc(S(=O)(=O)NC2CCN(c3ncnc4[nH]c(-c5cnn(C)c5)cc34)CC2)c1 [P-0453, 4-methyl-N-[1-[6-(1-methylpyrazol-4-yl)-7H-pyrrolo[2,3-d]pyrimidin-4-yl]-4-piperidyl]thiophene-2-sulfonamide] | 0.0001 to 1
14 | Cn1cc(-c2cc3c(N4CCC(NS(=O)(=O)c5ccc6c(c5)OCO6)CC4)ncnc3[nH]2)cn1 [P-0456, N-[1-[6-(1-methylpyrazol-4-yl)-7H-pyrrolo[2,3-d]pyrimidin-4-yl]-4-piperidyl]-1,3-benzodioxole-5-sulfonamide] | 0.0001 to 1
15 | Cc1ncc(-c2cc3c(N4CCC(NS(=O)(=O)c5ccc(OC(F)(F)F)cc5)CC4)ncnc3[nH]2)s1 [P-0463, N-[1-[6-(2-methylthiazol-5-yl)-7H-pyrrolo[2,3-d]pyrimidin-4-yl]-4-piperidyl]-4-(trifluoromethoxy)benzenesulfonamide] | 10 to 200
16 | O=S(=O)(NC1CCN(c2ncnc3[nH]c(-c4ccc(Cl)cc4)cc23)CC1)c1cc2ccccc2s1 [P-0467, N-[1-[6-(4-chlorophenyl)-7H-pyrrolo[2,3-d]pyrimidin-4-yl]-4-piperidyl]benzothiophene-2-sulfonamide] | 1 to 10
17 | CC(C)Oc1ccc(S(=O)(=O)NC2CCN(c3ncnc4[nH]c(-c5ccc(Cl)cc5)cc34)CC2)cc1 [P-0468, N-[1-[6-(4-chlorophenyl)-7H-pyrrolo[2,3-d]pyrimidin-4-yl]-4-piperidyl]-4-isopropoxy-benzenesulfonamide] | 0.0001 to 1
18 | CN(C)S(=O)(=O)NC1CCN(c2ncnc3[nH]c(-c4cnn(C)c4)cc23)CC1 [P-0469, 4-[4-(dimethylsulfamoylamino)-1-piperidyl]-6-(1-methylpyrazol-4-yl)-7H-pyrrolo[2,3-d]pyrimidine] | 0.0001 to 1
19 | O=S(=O)(NC1CCN(c2ncnc3[nH]c(C#CC4CC4)cc23)CC1)c1ccc(Cl)cc1 [P-0471, 4-chloro-N-[1-[6-(2-cyclopropylethynyl)-7H-pyrrolo[2,3-d]pyrimidin-4-yl]-4-piperidyl]benzenesulfonamide] | 10 to 200
20 | O=S(=O)(NC1CCN(c2ncnc3[nH]c(-c4ccc(Cl)cc4)cc23)CC1)c1cccc(Cl)c1 [P-0480, 3-chloro-N-[1-[6-(4-chlorophenyl)-7H-pyrrolo[2,3-d]pyrimidin-4-yl]-4-piperidyl]benzenesulfonamide] | 1 to 10
21 | O=S(=O)(NC1CCN(c2ncnc3[nH]c(-c4ccc(Cl)cc4)cc23)CC1)c1ccc(F)cc1 [P-0481, N-[1-[6-(4-chlorophenyl)-7H-pyrrolo[2,3-d]pyrimidin-4-yl]-4-piperidyl]-4-fluoro-benzenesulfonamide] | 10 to 200
22 | Cn1cc(-c2cc3c(N4CCC(NS(=O)(=O)c5ccc(N6CCCC6=O)cc5)CC4)ncnc3[nH]2)cn1 [P-0483, N-[1-[6-(1-methylpyrazol-4-yl)-7H-pyrrolo[2,3-d]pyrimidin-4-yl]-4-piperidyl]-4-(2-oxopyrrolidin-1-yl)benzenesulfonamide] | 0.0001 to 1
23 | CCCn1cc(S(=O)(=O)NC2CCN(c3ncnc4[nH]c(-c5cnn(C)c5)cc34)CC2)cn1 [P-0484, N-[1-[6-(1-methylpyrazol-4-yl)-7H-pyrrolo[2,3-d]pyrimidin-4-yl]-4-piperidyl]-1-propyl-pyrazole-4-sulfonamide] | 1 to 10
24 | Cn1cc(-c2cc3c(N4CCC(NS(=O)(=O)c5ccc(F)cc5)CC4)ncnc3[nH]2)cn1 [P-0490, 4-fluoro-N-[1-[6-(1-methylpyrazol-4-yl)-7H-pyrrolo[2,3-d]pyrimidin-4-yl]-4-piperidyl]benzenesulfonamide] | 1 to 10
25 | Cn1cc(-c2cc3c(N4CCC(NS(=O)(=O)c5ccccc5OC(F)(F)F)CC4)ncnc3[nH]2)cn1 [P-0493, N-[1-[6-(1-methylpyrazol-4-yl)-7H-pyrrolo[2,3-d]pyrimidin-4-yl]-4-piperidyl]-2-(trifluoromethoxy)benzenesulfonamide] | 10 to 200
26 | COc1ccc(S(=O)(=O)NC2CCN(c3ncnc4[nH]c(-c5cnn(C)c5)cc34)CC2)cc1 [P-0496, 4-methoxy-N-[1-[6-(1-methylpyrazol-4-yl)-7H-pyrrolo[2,3-d]pyrimidin-4-yl]-4-piperidyl]benzenesulfonamide] | 0.0001 to 1
27 | Cn1cc(-c2cc3c(N4CCC(NS(=O)(=O)c5ccc(OC(F)(F)F)cc5)CC4)ncnc3[nH]2)cn1 [P-0497, N-[1-[6-(1-methylpyrazol-4-yl)-7H-pyrrolo[2,3-d]pyrimidin-4-yl]-4-piperidyl]-4-(trifluoromethoxy)benzenesulfonamide] | 1 to 10
28 | O=S(=O)(NC1CCN(c2ncnc3[nH]c(-c4ccc(Cl)cc4)cc23)CC1)c1cccc(OC(F)(F)F)c1 [P-0499, N-[1-[6-(4-chlorophenyl)-7H-pyrrolo[2,3-d]pyrimidin-4-yl]-4-piperidyl]-3-(trifluoromethoxy)benzenesulfonamide] | 1 to 10
29 | Cn1cc(-c2cc3c(N4CCC(NS(=O)(=O)c5cccc(OC(F)(F)F)c5)CC4)ncnc3[nH]2)cn1 [P-0500, N-[1-[6-(1-methylpyrazol-4-yl)-7H-pyrrolo[2,3-d]pyrimidin-4-yl]-4-piperidyl]-3-(trifluoromethoxy)benzenesulfonamide] | 10 to 200
30 | O=C(NCc1ccc(F)cc1)NC1CCN(c2ncnc3[nH]ccc23)CC1 [P-0509, 1-[(4-fluorophenyl)methyl]-3-[1-(7H-pyrrolo[2,3-d]pyrimidin-4-yl)-4-piperidyl]urea] | 10 to 200
